According to patent publication US20220315616A1, “MANGANESE CHELATE ISOMERS” (GE Healthcare AS, priority 2019, published 2022):

Legend:
[1] = Dissociation of manganese from the chelate in human serum (SEC with ICP-MS); format: in vitro ADME; details: for Percent dechelation in human serum: 37° C., protein bound manganese
Procedure: (§1) Stability of Mn Chelate-5 stereoisomers in human serum was assessed in vitro by monitoring transfer of Mn from the chelate to blood proteins by a method employing size exclusion chromatography combined with online detection of manganese containing species by ICP-MS.
The following method was used for measurement of dissociation of manganese from the manganese chelate in human serum.
To human serum obtained from clotted blood (Sigma-Aldrich, 1900 μL) was added an aqueous solution of the manganese chelate (2 mM, 100 μL). The mixture was incubated at 37° C. At specific time points aliquots of 200 μL of test sample were mixed with saline (400 μL) and analysed by size exclusion chromatography (metal-free HPLC equipped with a column with separation range 5000-500000 Dalton) combined with online detection of manganese containing species by ICP-SF-MS. Percent dechelation was measured as area percent of the high molecular weight (protein) fraction. At regular intervals EDTA solution was run through the system to ensure low levels of background metal ions. Human serum was incubated with Mn(II)acetate and injected to identify the position of Mn-binding components in the high molecular weight region of the chromatogram.
Four different stereoisomers of Mn Chelate-5 (RR, SS, SR and RS) were analysed in this assay.

[2] = r1 and r2 relaxivities (Brüker mq60 relaxometer); format: physicochemical; details: in human serum at 60 MHz and 37° C.
Excerpt: General method for measurement of r1 and r2 relaxivities. […] […] Linear fits (R^2>0.99 in all cases) of 1/T1 or 1/T2 as a function of Mn concentration gave r1 or r2 values respectively.

[3] = Mn-54 biodistribution study in rats; format: in vivo, Sprague-Dawley rats; details: rat, 7 d post injection; for % ID ± standard deviation, Brain: 0.62 mmol Mn/kg with ~30 μCi 54Mn labeled chelate, n = 4
Procedure: In vivo stability of the different isomer pools was assessed via a ^54Mn radioactive biodistribution as Mn released in vivo is known to be retained in brain, bone and liver. The amount of Mn released in vivo was assessed for Mn Chelate-5 synthesized without stereochemical control, a 1:1 mix of (R,R)-Mn Chelate-5 and (S,S)-Mn Chelate 5 isomers, and (R,S)-Mn Chelate-5 isomer pool B using ^54Mn labeled material added to non-radiolabeled material. […] Rats were dosed with 0.62 mmol Mn Chelate-5/kg containing ˜30 μCi ^54Mn Chelate-5. The animals were sacrificed at 7 d post injection, organs of interest were collected, and the ^54Mn remaining in the organs was measured using a gamma counter. FIG. 4 is a plot showing % ID (injected dose)/organ 7 d post injection of a 0.62 mmol Mn Chelate-5/kg dose containing ˜[…] ^54Mn Chelate-5. Bars containing hashed lines represent % ID/organ at or below the limit of detection for the study. The results of statistical comparison of the % ID for each organ are summarized as p-values using either a one-way ANOVA Games-Howell comparison or a 2-way t-test as appropriate are shown for each organ.
Method for preparation of Mn-54 labeled chelate for biodistribution studies. To a 3 mL glass vial fitted with a magnetic stir bar was added the manganese containing chelate (1 mg) and 1.0 M ammonium formate, pH=4 (0.5 mL). ^54MnCl2 in 1.0 M HCl (˜500 μCi) was then added and the resulting solution was heated at 40° C. for 16 h. The resulting solution was purified via preparative HPLC to remove unchelated Mn. The radioactive fraction was collected and evaporated to dryness in vacuo. The radioactive residue was taken up in water containing non-radioactive Mn chelate (0.310 M) such that ˜30 μCi of radioactivity was formulated in a dose of 0.620 mmol Mn/kg with an injection volume of 2 mL/kg.
General method for Mn-54 biodistribution studies. […] 7 days post injection, the animals were sacrificed by CO2 immersion and organs and tissues of interest were removed and assayed for radioactivity using a Wizard 2480 gamma counter (Table 2).

[4] = Trans-metalation with Zn (HPLC, % Mn chelate remaining); format: physicochemical; details: 2 mM chelate, 200 mM ZnCl2 in 15 mM ammonium formate, pH=4, 40° C.
Procedure: as §1
Method for assessing trans-metalation with Zn. Mn chelates were dissolved in aqueous solutions containing 200 mM ZnCl2 and 15 mM ammonium formate at either pH=4 to give a Mn chelate concentration of approx. 2 mM. The resulting solutions were incubated at 40° C. with mixing and aliquots were periodically analyzed by HPLC. The percent Mn containing chelate remaining in the solution was measured by integration at 265 nm.

Row | Compound | Percent dechelation in human serum ([1]; incubation time 3 h) [%] | Percent dechelation in human serum ([1]; incubation time 24 h) [%] | Percent dechelation in human serum ([1]; incubation time 49 h) [%] | r1 relaxivity [2] [mM⁻¹ s⁻¹] | % ID ± standard deviation, Brain [3] [% ID] | Mn remaining in vivo in brain and bone vs 1:1 (S,S)/(R,R) mixture or Mn Chelate-5 without stereochemical control [3] | Rate of transmetallation with Zn (among Mn Chelate-5 stereoisomers) [4] | Stability in human serum (percent dechelation curves, comparison of isomers) ([1]; 2 days total incubation at 37 °C)
1 | CN1CCN2Cc3cccc(n3)CN(CC1)[C@H](CCC(=O)NC[C@H](O)[C@@H](O)[C@H](O)[C@H](O)CO)C(=O)[O][Mn][O]C(=O)[C@H]2CCC(=O)NC[C@H](O)[C@@H](O)[C@H](O)[C@H](O)CO [(R,R)-Mn Chelate-5] | 0.6 | 2.7 | 3.6 | – | – | – | – | –
2 | CN1CCN2Cc3cccc(n3)CN(CC1)C(CCC(=O)NC[C@H](O)[C@@H](O)[C@H](O)[C@H](O)CO)C(=O)[O][Mn][O]C(=O)C2CCC(=O)NC[C@H](O)[C@@H](O)[C@H](O)[C@H](O)CO (stereo partly shown) [Mn Chelate-5] | – | – | – | 6.0 | 0.005 ± 0.0004 | – | – | –
3 | CN1CCN2Cc3cccc(n3)CN(CC1)[C@@H](CCC(=O)NC[C@H](O)[C@@H](O)[C@H](O)[C@H](O)CO)C(=O)[O][Mn][O]C(=O)[C@@H]2CCC(=O)NC[C@H](O)[C@@H](O)[C@H](O)[C@H](O)CO [(S,S)-Mn Chelate-5] | 0.3 | 1.6 | 2.4 | – | – | – | – | –
4 | CN1CCN2Cc3cccc(n3)CN(CC1)[C@@H](CCC(=O)NC[C@H](O)[C@@H](O)[C@H](O)[C@H](O)CO)C(=O)[O][Mn][O]C(=O)[C@H]2CCC(=O)NC[C@H](O)[C@@H](O)[C@H](O)[C@H](O)CO [(R,S)-Mn Chelate-5] | 0.04 | 0.11 | 0.16 | 6.0 | 0.002 ± 0.0004 | significantly less Mn remaining in vivo | significantly slower rate of transmetallation | most stable
